Assay results as given in US4820867A, “Phenoxypropoxy halophenylacetic acids as leukotriene antagonists” (Merck Frosst Canada, Inc., priority 1986, dated 1989).

Tested on: leukotriene D4 induced bronchoconstriction
Experiment: inhibition of leukotriene D4 induced bronchoconstriction in anaesthetized guinea pigs (modified Konzett-Rossler)
Assay type: in vivo, guinea pig
Set-up: % Inhibition After 30 Min.: concentration or dose not given beside the values
Conditions: for ED50: Cavia porcellus, 10 min, directly into the duodenum, dose producing 50% inhibition when given 10 minutes before LTD4, read-out: ED50 (median effective dose), inhibition of LTD4 induced bronchoconstriction; for % Inhibition After 30 Min.: inhibition of LTD4 induced bronchoconstriction, intraduodenal, 30 min after antagonist administration
Protocol: The antagonist activity of the compounds of the present invention was determined by measuring their ability to inhibit leukotriene D4 induced bronchoconstriction in anaesthetized guinea pigs (modified Konzett-Rossler). When administrated directly into the duodenum (oral activity) they are active at 2.5-5 mg/kg. Oral activity is defined as the dose producing 50% inhibition when given 10 minutes before LTD4. Percent inhibition was determined at 10 minutes and also at 30 and 50 minutes after antagonist administration. The time interval between LTD4 administration was kept constant at 20 minutes in all experiments.
Table I is a comparison between three known leukotriene antagonists (entries 1, 2 and 3, see: G.B. Pat. No. 2,058,785, supra) and several compounds of the present invention (4-9).

Structure (SMILES)	ED50	% Inhibition After 30 Min.
CCCc1c(OCCCOc2ccc(C(=O)O)cc2)ccc(C(C)=O)c1O [Entry 1, reference compound]	10 mg/kg	59%
CCCc1c(OCCCOc2cccc(CCC(=O)O)c2)ccc(C(C)=O)c1O [Entry 2, reference compound]	10 mg/kg	32%
CCCc1c(OCCCOc2ccc(C=CC(=O)O)cc2)ccc(C(C)=O)c1O [Entry 3, reference compound]	20 mg/kg	56%
CCCc1c(OCCCOc2ccc(CC(=O)O)cc2F)ccc(C(C)=O)c1O [Entry 4, 4-(3-(4-Acetyl-3-hydroxy-2-propylphenoxy)-propoxy)-3-fluorobenzene acetic acid]	10 mg/kg	100%
CCCc1c(OCC(O)COc2ccc(CC(=O)O)cc2F)ccc(C(C)=O)c1O (stereo not drawn) [Entry 5, 4-(3-(4-Acetyl-3-hydroxy-2-propylphenoxy)-2-hydroxypropoxy)-3-fluorobenzeneacetic acid]	2.5 mg/kg	50%
CCCc1c(OCC(O)COc2ccc(CC(=O)O)cc2Br)ccc(C(C)=O)c1O (stereo not drawn) [Entry 6, 4-(3-(4-Acetyl-3-hydroxy-2-propylphenoxy)-2-hydroxypropoxy)-3-bromobenzene acetic acid]	2.5 mg/kg	35%
CCCc1c(OCC(O)COc2ccc(CC(=O)O)cc2Cl)ccc(C(C)=O)c1O (stereo not drawn) [Entry 7, 4-(3-(4-Acetyl-3-hydroxy-2-propylphenoxy)-2-hydroxypropoxy)-3-chlorobenzeneacetic acid]	10 mg/kg	63%
CCCc1c(OCCCOc2ccc(CC(=O)O)cc2Cl)ccc(C(C)=O)c1O [Entry 8, 4-(3-(4-acetyl-3-hydroxy-2-propylphenoxy)propoxy)-3-chlorobenzene acetic]	5 mg/kg	60%
CCCc1c(OCCCOc2ccc(CC(=O)O)cc2Br)ccc(C(C)=O)c1O [Entry 9, 4-(3-(4-Acetyl-3-hydroxy-2-propylphenoxy)-propoxy)-3-bromobenzene acetic acid]	10 mg/kg	87%
